Laboratory results taken from patent US6017958A, “Method of treating malignant tumors with thyroxine analogues having no significant hormonal activity” (Octamer, Inc., priority 1997, dated 2000).
Read-outs that look alike come from different tables or passages of the source.

Legend:
Rana pipiens tadpoles = details: tadpole metamorphosis; cited from earlier work
[1] = test system: A-549 (lung cancer) cell extracts, esterase; assay: Esterase cleavage of DIME by A-549 cell extracts (TLC); assay type: in vitro ADME, human
Protocol: In the experiment shown in lines 1 and 2 the esterase activity of the extract occurs during 4 hours incubation with 1 μM DIME. […] Lines 3 and 4 depict the same experiments as in lines 1 and 2, except the cell extracts were prepared from intact cells preincubated for 24 hours with 1 μM DIME, then washed and extracted.
(a) mouse tissue homogenate (brain, kidney, liver lung) consisting of 0.2 g of tissue in 1.0 ml. of homogenization buffer (50 mM Tris (pH 7.4), 400 mM NaCl, 10 mM MgCl2, 1 mM EDTA, 0.5% NP-40, 0.5 mM PMSF) each were combined with 1.0 ml of MES buffer (100 mM ph 6.5) containing 20 μM [^14 C]-DIME (10.55 mCi/mmol), and the mixtures were incubated at 37° C. for 4 hours. Then to each tube was added sequentially ethyl acetate (1.5 ml), ammonium sulfate (900 mg) and 60% perchloric acid (160 μl), with vortexing after each addition. After standing for 10 minutes, phase separation was enhanced by benchtop centrifugation. The upper (ethyl acetate) layer was drawn off, and the lower aqueous and interphase material was extracted with a second portion of ethyl acetate (1.5 ml). The ethyl acetate extracts (combined) contained more than 90% of the total cpm present in the original incubate (ca. 4×10^5 cpm). […]

MDA-MD-231 cells = assay: Inhibition of tumor cell growth; assay type: cell-based, human; details: 3 days, control 0.95
Protocol: MDA-MD-231 human cancer cells were obtained from the American Tissue Culture Collection (Rockville, Md.) and maintained in the recommended growth media. Cells were grown in the presence of various concentrations of Compounds 1 and 14 for 3 days at 37° C.

E-ras cells = assay: DNA cuts (TUNEL); assay type: cell-based, bovine; details: 2-10 μM, 18 hours
Protocol: E-ras cells (2×10^4 cells/cm^2) were treated with DIME 18 hours prior to the TUNEL assay.
Assay for DNA cuts, as a signal for apoptosis, was via the terminal deoxynucleotidyl transferase dUTP nick end labeling (TUNEL) reaction as specified by the manufacturer of the assay kit (Boehringer Mannheim, Indianapolis, Ind., USA, Cat. No. 168-4817).

[2] = test system: E-ras 20 cells (E-ras transformed bovine endothelial cells); assay: Tumorigenicity of pretreated E-ras 20 cells in athymic nude mice; parameters: species or system bovine cells in nude mice; details: 10 μM pretreatment, no in vivo drug treatment
[3] = test system: T47D (ductal mammary cancer); assay: Cytocidal action/growth inhibition, T47D; assay type: cell-based; details: Homo sapiens, 72 h
Protocol: (§1) Seven human cancer cell lines were obtained from the American Tissue Culture Collection (Rockville, Md.) and maintained in the recommended growth media. Cells were seeded into wells (2 cm^2) at a density of 2×10^4 cells/cm^2. Various concentrations of Compounds 1-13 were added to the media at the time of seeding.
(§2) The cultures were incubated for 72 hours at 37° C. (5% CO2 atmosphere). Following incubation, cells were detached with trypsin and counted in a hemocytometer.
(§3) I100 designates the concentration at which no viable cells remained; I50 the concentration at which 50% viable cells remained, as compared to a control.
(§4) E-ras 20 cells were cultured as reported, Bauer et al., 1996, "Modification of growth related enzymatic pathways and apparent loss of tumorigenicity of a ras-transformed bovine endothelial cell line by treatment with 5-iodo-6-amino-1,2-benzopyrone (INH2 BP)" Intl. J. Oncol. 8:239-252; HT-144 (melanoma), DU-145 (prostatic cancer), HeLa (cervical cancer), HL 60 (promyelocytic leukemia), MDA-MB-231 (mammary cancer), SK-Br-3 (mammary cancer), T47D (ductal mammary cancer), A559 (lung cancer) were obtained from American Type Culture Collection (Rockville, Md.) and cultured in prescribed media. The effect of DIME was tested in cultures with a starting cell density of 2×10^4 cells per cm^2 and comparison of the effect of DIME on cell growth (intact cells identified by Trypan blue exclusion) was assayed by direct cell counting after trypsinization in a hemocytometer 72 hours after drug addition.
(§5) For DIME-exposure experiments cells were seeded into 2 cm^2 wells at a density of 2×10^4 cells/cm^2. DIME at various concentrations was added to the medium at the time of seeding. The cell cultures were then incubated for 3 days (37° C. in 5% at CO2 atmosphere).

E-ras 20 cells = assay: Growth inhibition, E-ras 20; assay type: cell-based, bovine; details: Bos taurus, 72 h; day 3; Table 11; read-out: I50 (day 3)
Protocol: as §4, §5

[4] = test system: iodine uptake into the thyroid; details: rats, as compared to thyroxine (Money et al., 1959); cited from earlier work
[5] = test system: MDA-MD-231 (mammary cancer); assay: Cytocidal action/growth inhibition, MDA-MB-231; assay type: cell-based; details: Homo sapiens
Protocol: as §1, §2, §3, §4, §5

SK-Br-3 (mammary cancer) = assay: Cytocidal action/growth inhibition, SK-Br-3; assay type: cell-based; details: Homo sapiens
Protocol: as §1, §2, §3, §4, §5

[6] = 0.25 to 1.0 g/kg daily per os; cited from earlier work

For `COC(=O)c1cc(I)c(Oc2ccc(OC)cc2)c(I)c1` [Compound 1, Methyl 3,5-diiodo-4-(4'-methoxyphenoxy)benzoate], the “metamorphosis / cell differentiating activity” value (Rana pipiens tadpoles) is listed as “no significant metabolic or cell differentiating activity”, the “ester bond cleavage by A-549 cells” value ([1]; A-549 cells) is listed as “readily cleave the ester bond” and the esterase induction ([1]; intact cells preincubated 24 hours with 1 μM DIME) is listed as “esterase is not induced by DIME”. The “Cells (growth)” value (MDA-MD-231 cells; 0.5 μM) was 0.20 ×10^6, the “Cells (growth)” value (MDA-MD-231 cells; 1.0 μM) was 0.10 ×10^6 and the “Cells (growth)” value (MDA-MD-231 cells; 2.0 μM) was 0.09 ×10^6. For the same compound, the DNA breaks (E-ras cells) was “drug concentration-dependent DNA breaks”, the “tumor appearance after 3 months” value [2] was “Tumors did not appear even after 3 months” and the IC50 ([3]; Table 4, read-out: I50) was 700 nM. It also gave an IC100 ([3]; Table 4, read-out: I100 (no viable cells remained)) of 3.5 µM, an IC50 ([3]; day 3, Table 11, read-out: I50 (day 3)) of 700 nM and an IC50 (E-ras 20 cells) of 1000 nM. For the same compound, the “inhibition of uptake of iodine into the thyroid” value [4] was 15%, the IC50 ([5]; MDA-MB-231, 72 h, day 3, Table 11, read-out: I50 (day 3)) was 400 nM and the IC50 ([5]; MDA-MB-231, 72 h, Table 4, read-out: I50) was 400 nM. For the same compound, the IC100 ([5]; MDA-MB-231, 72 h, Table 4, read-out: I100 (no viable cells remained)) was 3 µM, the IC50 (SK-Br-3 (mammary cancer); SK-BR-3, 72 h, day 3, Table 11, read-out: I50 (day 3)) was 600 nM and the IC50 (SK-Br-3 (mammary cancer); SK-BR-3, 72 h, Table 4, read-out: I50) was 600 nM. For the same compound, the IC100 (SK-Br-3 (mammary cancer); SK-BR-3, 72 h, Table 4, read-out: I100 (no viable cells remained)) was 5 µM and the noticeable toxicity [6] was “no noticeable toxicity”.
